Structures are written as SMILES.

The subject of test [1] is CSP processing in P. falciparum sporozoites. Description: Pulse-chase metabolic labeling of CSP processing, P. falciparum sporozoites. The test is classed as cell-based, Plasmodium falciparum. Particulars: ninety minute chase. The method, then:
P. berghei sporozoites were incubated in Dulbecco's Modified Eagle Medium (DMEM; Invitrogen, Carlsbad, Calif.) without cysteine (Cys) and methionine (Met), containing 1% BSA and […] L-[35 S]-Cys/Met (Pro-Mix, Amersham Pharmacia) in a total volume of 200 μl for one hour at 28° C. They were then washed and resuspended in DMEM/BSA containing unlabeled Cys/Met at 28° C. for the indicated time in the presence or absence of the indicated protease inhibitor. Sporozoites were then lysed and CSP was immunoprecipitated and analyzed by autoradiography as outlined below.
For experiments with P. falciparum, a 10% SDS-polyacrylamide gel was used. Gels were fixed in 25% methanol/12% acetic acid, enhanced with Amplify (Amersham Pharmacia) for 30 minutes, dried, and exposed to film.
P. berghei sporozoites were metabolically labeled in DMEM without Cys/Met, 1% BSA and 400 μCi/ml L-[^355]-Cys/Met for 1 hour at 28° C. and then kept on ice or chased at 28° C. for the indicated times. Details of this procedure are outlined in (Coppi et al., 2005). To investigate the kinetics of processing in the presence of hepatocytes, sporozoites were labeled as above, chased at 28° C. for 1 hour and then centrifuged (300×g) onto glass coverslips with Hepa 1-6 cells and incubated at 37° C. for 5, 15 or 30 minutes. […]

The test system of another test is P. yoelii sporozoites. Particulars: preincubated with 10 mM E-64. The procedure:
Lab-Tek glass slides (model 177402, Nalgene Nunc Corp., Naperville, Il.) were coated with […] of mAb 3D11 (P. berghei) or mAbs 2F6 and NYS1 (P. yoelii) and sporozoites pre-incubated with DMEM/BSA alone or supplemented with 10 mM E-64 or CD for two hours at 28° C. were added in the continued presence of the inhibitor for one hour at 37° C. in a humidified chamber with 5% CO2. The slides were then fixed with 4% paraformaldehyde, incubated with 1:100 dilution of either biotinylated mAb 3D11 (P. berghei) or biotinylated mAb NYS1 (P. yoelii) followed by streptavidin-FITC.

The test system of the next test is P. berghei sporozoites. Particulars: in the presence of E-64. The method, then:
Hepa 1-6 cells were plated in 96-well tissue culture-treated plates, allowed to grow until semi-confluent, washed with DMEM without phenol red, loaded with 10 μM calcein green AM for 1 hour at 37° C. and washed 3 times. 5×10^5 sporozoites in culture medium were centrifuged onto the calcein-loaded cells, incubated for 1 hour at 37° C. and supernatants containing the released calcein were transferred to a ThermoElectron Microfluor 96-well plate. Fluorescence was read in a Labsystems Fluoroscan II using excitation and emission wavelengths of 485 nm and 538 nm, respectively. Further details are outlined in (Coppi et al., 2007).

Consider `CC(C)C[C@H](NC(=O)[C@H]1O[C@@H]1C(=O)O)C(=O)NCCCCN=C(N)N` (relative stereo) [E-64, L-trans-epoxysuccinyl-leucylamide-[4-guanido]-butane], for which the “effect on CSP processing” value in test [1] is given as “inhibited CSP processing”. For the same molecule, the “percentage of sporozoites that exhibited gliding motility” value in the test on P. yoelii sporozoites is recorded as “no effect”. In the test with P. berghei sporozoites, the “increase in migratory activity” value is recorded as 4 to 5 fold.

The values are drawn from US20130022612A1, “METHODS AND COMPOSITIONS FOR MALARIA PROPHYLAXIS” (priority 2004, published 2013).
